The OligoGym collection
HELM strings list units from the 5' end as sugar, base in round brackets, then linkage (d deoxyribose, r ribose, m 2'-O-methyl, p phosphodiester). Strings are as the collection lists them; they lack the last nucleoside at the 3' end of the tested compound. [moe] = 2'-O-(2-methoxyethyl) (MOE); [sp] = phosphorothioate linkage; [m5C] = 5-methylcytosine

Biological target: GFAP
Assay: mouse, dose not given
Details: ASO

Substance	3 h FOB score [score 0-7]
RNA1{[moe](G)[sp].[moe](T)p.[moe](A)p.[moe]([m5C])p.[moe]([m5C])[sp].d([m5C])[sp].d(T)[sp].d(G)[sp].d(G)[sp].d(T)[sp].d(A)[sp].d(T)[sp].d(G)[sp].d(A)[sp].d(T)[sp].[moe](A)p.[moe](G)p.[moe](G)[sp].[moe]([m5C])}$$$$ (last 3' nucleoside missing)	6
RNA1{[moe](G)[sp].[moe]([m5C])p.[moe](A)p.[moe]([m5C])p.[moe](A)p.[moe](G)p.d(T)[sp].d(T)[sp].d([m5C])[sp].d([m5C])[sp].d([m5C])[sp].d(A)[sp].d(G)[sp].d(A)[sp].d(T)[sp].d(A)[sp].[moe]([m5C])p.[moe](T)[sp].[moe]([m5C])}$$$$ (last 3' nucleoside missing)	0
RNA1{[moe]([m5C])[sp].[moe](T)p.[moe](G)p.[moe]([m5C])p.[moe]([m5C])[sp].d(A)[sp].d(T)[sp].d(T)[sp].d(T)[sp].d(A)[sp].d(T)[sp].d([m5C])[sp].d(T)[sp].[moe](G)p.[moe](T)p.[moe](G)[sp].[moe]([m5C])}$$$$ (last 3' nucleoside missing)	1
RNA1{[moe](T)[sp].[moe]([m5C])p.[moe](T)p.[moe](T)p.[moe](T)[sp].d(A)[sp].d(T)[sp].d(T)[sp].d(T)[sp].d(T)[sp].d(T)[sp].d([m5C])[sp].d([m5C])[sp].d(T)[sp].d([m5C])[sp].[moe](A)p.[moe](G)p.[moe]([m5C])[sp].[moe](G)}$$$$ (last 3' nucleoside missing)	1
RNA1{[moe](A)[sp].[moe](G)p.[moe](T)p.[moe]([m5C])p.[moe](A)[sp].d(G)[sp].d([m5C])[sp].d([m5C])[sp].d(T)[sp].d(G)[sp].d(G)[sp].d(T)[sp].d(T)[sp].[moe](A)p.[moe](G)p.[moe]([m5C])[sp].[moe]([m5C])}$$$$ (last 3' nucleoside missing)	2
RNA1{[moe]([m5C])[sp].[moe](A)p.[moe](T)p.[moe](T)p.[moe](T)[sp].d(G)[sp].d(T)[sp].d([m5C])[sp].d(T)[sp].d(T)[sp].d(T)[sp].d(A)[sp].d(T)[sp].[moe](T)p.[moe](T)p.[moe](T)[sp].[moe](T)}$$$$ (last 3' nucleoside missing)	0
RNA1{[moe](A)[sp].[moe]([m5C])p.[moe](G)p.[moe](T)p.[moe]([m5C])p.d(A)[sp].d([m5C])[sp].d(A)[sp].d(T)[sp].d(T)[sp].d([m5C])[sp].d(A)[sp].d([m5C])[sp].d(T)[sp].d(A)[sp].[moe](A)p.[moe](T)p.[moe](A)[sp].[moe](T)}$$$$ (last 3' nucleoside missing)	0
RNA1{[moe](T)[sp].[moe](T)p.[moe](G)p.[moe](T)p.[moe]([m5C])[sp].d(T)[sp].d(T)[sp].d(T)[sp].d(A)[sp].d(T)[sp].d(T)[sp].d(T)[sp].d(T)[sp].[moe](T)p.[moe]([m5C])p.[moe]([m5C])[sp].[moe](T)}$$$$ (last 3' nucleoside missing)	0
RNA1{[moe](T)[sp].[moe](G)p.[moe](A)p.[moe]([m5C])p.[moe](T)p.[moe](A)p.d(T)[sp].d([m5C])[sp].d(T)[sp].d(A)[sp].d(G)[sp].d(G)[sp].d(A)[sp].d(T)[sp].d(T)[sp].d(T)[sp].[moe](G)p.[moe](G)[sp].[moe]([m5C])}$$$$ (last 3' nucleoside missing)	2
RNA1{[moe](G)[sp].[moe](G)p.[moe]([m5C])p.[moe](A)p.[moe](A)[sp].d([m5C])[sp].d(A)[sp].d(G)[sp].d(T)[sp].d(T)[sp].d(T)[sp].d([m5C])[sp].d([m5C])[sp].d(A)[sp].d(T)[sp].[moe](A)p.[moe](A)p.[moe]([m5C])[sp].[moe](A)}$$$$ (last 3' nucleoside missing)	0
RNA1{[moe]([m5C])[sp].[moe](A)p.[moe]([m5C])p.[moe](A)p.[moe](T)p.[moe](T)p.d([m5C])[sp].d(A)[sp].d([m5C])[sp].d(T)[sp].d(A)[sp].d(A)[sp].d(T)[sp].d(A)[sp].d(T)[sp].d(T)[sp].[moe](T)p.[moe](A)[sp].[moe](A)}$$$$ (last 3' nucleoside missing)	0
RNA1{[moe](G)[sp].[moe](T)p.[moe](G)p.[moe]([m5C])p.[moe]([m5C])[sp].d([m5C])[sp].d([m5C])[sp].d([m5C])[sp].d([m5C])[sp].d(G)[sp].d([m5C])[sp].d([m5C])[sp].d([m5C])[sp].d(T)[sp].d([m5C])[sp].[moe]([m5C])p.[moe](T)p.[moe]([m5C])[sp].[moe]([m5C])}$$$$ (last 3' nucleoside missing)	2
RNA1{[moe](T)[sp].[moe]([m5C])p.[moe](T)p.[moe]([m5C])p.[moe](T)[sp].d([m5C])[sp].d([m5C])[sp].d(T)[sp].d(G)[sp].d(T)[sp].d(T)[sp].d(T)[sp].d([m5C])[sp].d(A)[sp].d(G)[sp].[moe]([m5C])p.[moe](A)p.[moe](T)[sp].[moe]([m5C])}$$$$ (last 3' nucleoside missing)	3
RNA1{[moe](G)[sp].[moe]([m5C])p.[moe]([m5C])p.[moe](A)p.[moe](T)[sp].d(T)[sp].d(T)[sp].d(A)[sp].d(T)[sp].d([m5C])[sp].d(T)[sp].d(G)[sp].d(T)[sp].d(G)[sp].d([m5C])[sp].[moe](T)p.[moe](T)p.[moe](T)[sp].[moe](A)}$$$$ (last 3' nucleoside missing)	6
RNA1{[moe](T)[sp].[moe](A)p.[moe](T)p.[moe]([m5C])p.[moe](T)[sp].d(G)[sp].d(T)[sp].d(G)[sp].d([m5C])[sp].d(T)[sp].d(T)[sp].d(T)[sp].d(A)[sp].[moe](G)p.[moe](T)p.[moe](G)[sp].[moe](A)}$$$$ (last 3' nucleoside missing)	3
RNA1{[moe](G)[sp].[moe](T)p.[moe](G)p.[moe](G)p.[moe](T)p.d([m5C])[sp].d([m5C])[sp].d(T)[sp].d(A)[sp].d(A)[sp].d(A)[sp].d(T)[sp].d(A)[sp].d(T)[sp].d(T)[sp].[moe]([m5C])p.[moe](T)p.[moe](A)[sp].[moe](G)}$$$$ (last 3' nucleoside missing)	1
RNA1{[moe](T)[sp].[moe]([m5C])p.[moe](A)p.[moe]([m5C])p.d(A)[sp].d(T)[sp].d(T)[sp].d([m5C])[sp].d(A)[sp].d([m5C])[sp].d(T)[sp].d(A)[sp].d(A)[sp].d(T)[sp].[moe](A)p.[moe](T)p.[moe](T)p.[moe](T)[sp].[moe](A)}$$$$ (last 3' nucleoside missing)	0
RNA1{[moe](A)[sp].[moe]([m5C])p.[moe](G)p.[moe](T)p.[moe]([m5C])p.[moe](A)p.d([m5C])[sp].d(A)[sp].d(T)[sp].d(T)[sp].d([m5C])[sp].d(A)[sp].d([m5C])[sp].d(T)[sp].d(A)[sp].d(A)[sp].[moe](T)p.[moe](A)[sp].[moe](T)}$$$$ (last 3' nucleoside missing)	0
RNA1{[moe]([m5C])[sp].[moe]([m5C])p.[moe](A)p.[moe](G)p.[moe](T)p.d(G)[sp].d(T)[sp].d([m5C])[sp].d(T)[sp].d(T)[sp].d([m5C])[sp].d(A)[sp].d([m5C])[sp].d(T)[sp].d(T)[sp].[moe](T)p.[moe](G)p.[moe]([m5C])[sp].[moe](T)}$$$$ (last 3' nucleoside missing)	0
RNA1{[moe](A)[sp].[moe]([m5C])p.[moe](A)p.[moe](T)p.[moe](T)p.d([m5C])[sp].d(A)[sp].d([m5C])[sp].d(T)[sp].d(A)[sp].d(A)[sp].d(T)[sp].d(A)[sp].d(T)[sp].d(T)[sp].[moe](T)p.[moe](A)p.[moe](A)[sp].[moe]([m5C])}$$$$ (last 3' nucleoside missing)	0
RNA1{[moe](T)[sp].[moe](T)p.[moe](T)p.[moe](G)p.d(T)[sp].d([m5C])[sp].d(T)[sp].d(T)[sp].d(T)[sp].d(A)[sp].d(T)[sp].d(T)[sp].d(T)[sp].d(T)[sp].[moe](T)p.[moe]([m5C])p.[moe]([m5C])p.[moe](T)[sp].[moe]([m5C])}$$$$ (last 3' nucleoside missing)	1
RNA1{[moe](G)[sp].[moe](A)p.[moe](G)p.[moe](A)p.[moe](T)[sp].d(A)[sp].d(T)[sp].d([m5C])[sp].d(T)[sp].d(T)[sp].d(G)[sp].d(T)[sp].d(G)[sp].d(A)[sp].d([m5C])[sp].[moe]([m5C])p.[moe](T)p.[moe](T)[sp].[moe](G)}$$$$ (last 3' nucleoside missing)	4
RNA1{[moe]([m5C])[sp].[moe]([m5C])p.[moe](T)p.[moe](T)p.d(G)[sp].d(T)[sp].d(G)[sp].d(A)[sp].d(T)[sp].d(T)[sp].d(T)[sp].d(T)[sp].d([m5C])[sp].d([m5C])[sp].[moe]([m5C])p.[moe]([m5C])p.[moe](G)p.[moe](T)[sp].[moe]([m5C])}$$$$ (last 3' nucleoside missing)	1
RNA1{[moe](G)[sp].[moe](T)p.[moe]([m5C])p.[moe](T)p.[moe](T)[sp].d(T)[sp].d(A)[sp].d(T)[sp].d(T)[sp].d(T)[sp].d(T)[sp].d(T)[sp].d([m5C])[sp].d([m5C])[sp].d(T)[sp].[moe]([m5C])p.[moe](A)p.[moe](G)[sp].[moe]([m5C])}$$$$ (last 3' nucleoside missing)	5
RNA1{[moe](G)[sp].[moe](T)p.[moe]([m5C])p.[moe](T)p.[moe](G)[sp].d(A)[sp].d(G)[sp].d(T)[sp].d([m5C])[sp].d(T)[sp].d([m5C])[sp].d(A)[sp].d(G)[sp].d(T)[sp].d(T)[sp].[moe](T)p.[moe](T)p.[moe]([m5C])[sp].[moe]([m5C])}$$$$ (last 3' nucleoside missing)	7
RNA1{[moe](G)[sp].[moe](T)p.[moe](G)p.[moe]([m5C])p.[moe](T)[sp].d(G)[sp].d([m5C])[sp].d(T)[sp].d(G)[sp].d([m5C])[sp].d([m5C])[sp].d(A)[sp].d(G)[sp].d(A)[sp].d(G)[sp].[moe](T)p.[moe]([m5C])p.[moe]([m5C])[sp].[moe](T)}$$$$ (last 3' nucleoside missing)	6
